In ChEMBL document CHEMBL5331098, “Nanomolar β-glucosidase and β-galactosidase inhibition by enantiomeric α-1-C-alkyl-1,4-dideoxy-1,4-imino-arabinitol derivatives” (Eur J Med Chem, 2023):
pIC50: −log10 of the molar value.

How the values were obtained:
Alpha-glucosidase = Alpha-glucosidase (Saccharomyces cerevisiae S288c, UniProt P53341+P38158+P07265); test: Inhibition of yeast alpha-glucosidase assessed as reduction of p-nitrophenol release using p-nitrophenyl glycoside as substrate by spectrophotometric analysis; assay type: protein assay
[1] = Inhibition of rice alpha-glucosidase assessed as reduction of p-nitrophenol release using p-nitrophenyl glycoside as substrate by spectrophotometric analysis; parameters: species or system Oryza sativa
[2] = Inhibition of rat intestinal maltase assessed as D-glucose release using maltose as substrate at pH 6.8 by colorimetric method
[3] = Inhibition of almond beta-glucosidase assessed as reduction of p-nitrophenol release using p-nitrophenyl glycoside as substrate by spectrophotometric analysis; parameters: species or system Prunus dulcis
[4] = Inhibition of bovine liver beta-glucosidase assessed as reduction of p-nitrophenol release using p-nitrophenyl glycoside as substrate by spectrophotometric analysis; parameters: species or system Bos taurus
[5] = target: Alpha-galactosidase (Coffea arabica) (UniProt Q42656); test: Inhibition of coffee beans alpha-galactosidase assessed as reduction of p-nitrophenol release using p-nitrophenyl glycoside as substrate at 1000 uM by spectrophotometric analysis relative to control
Chain of Alpha-galactosidase (Coffea arabica) (Q42656 16-378 limits assumed): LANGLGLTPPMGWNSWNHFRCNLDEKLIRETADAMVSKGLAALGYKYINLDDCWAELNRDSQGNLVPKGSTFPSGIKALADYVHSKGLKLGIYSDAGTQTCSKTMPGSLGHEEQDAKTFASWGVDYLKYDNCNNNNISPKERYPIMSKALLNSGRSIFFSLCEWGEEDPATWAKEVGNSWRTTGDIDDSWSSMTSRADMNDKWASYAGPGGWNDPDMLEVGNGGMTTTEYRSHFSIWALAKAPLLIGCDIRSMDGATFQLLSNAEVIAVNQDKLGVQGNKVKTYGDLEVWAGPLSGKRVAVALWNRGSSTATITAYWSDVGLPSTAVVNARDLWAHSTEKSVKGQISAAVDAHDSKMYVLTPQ

[6] = Inhibition of bovine liver beta-galactosidase assessed as reduction of p-nitrophenol release using p-nitrophenyl glycoside as substrate by spectrophotometric analysis; parameters: species or system Bos taurus
[7] = target: T1, Alpha-mannosidase (Canavalia ensiformis) (UniProt C0HJB3); test: Inhibition of jack bean alpha-mannosidase assessed as reduction of p-nitrophenol release using p-nitrophenyl glycoside as substrate at 1000 uM by spectrophotometric analysis relative to control
T1 sequence (whole entry): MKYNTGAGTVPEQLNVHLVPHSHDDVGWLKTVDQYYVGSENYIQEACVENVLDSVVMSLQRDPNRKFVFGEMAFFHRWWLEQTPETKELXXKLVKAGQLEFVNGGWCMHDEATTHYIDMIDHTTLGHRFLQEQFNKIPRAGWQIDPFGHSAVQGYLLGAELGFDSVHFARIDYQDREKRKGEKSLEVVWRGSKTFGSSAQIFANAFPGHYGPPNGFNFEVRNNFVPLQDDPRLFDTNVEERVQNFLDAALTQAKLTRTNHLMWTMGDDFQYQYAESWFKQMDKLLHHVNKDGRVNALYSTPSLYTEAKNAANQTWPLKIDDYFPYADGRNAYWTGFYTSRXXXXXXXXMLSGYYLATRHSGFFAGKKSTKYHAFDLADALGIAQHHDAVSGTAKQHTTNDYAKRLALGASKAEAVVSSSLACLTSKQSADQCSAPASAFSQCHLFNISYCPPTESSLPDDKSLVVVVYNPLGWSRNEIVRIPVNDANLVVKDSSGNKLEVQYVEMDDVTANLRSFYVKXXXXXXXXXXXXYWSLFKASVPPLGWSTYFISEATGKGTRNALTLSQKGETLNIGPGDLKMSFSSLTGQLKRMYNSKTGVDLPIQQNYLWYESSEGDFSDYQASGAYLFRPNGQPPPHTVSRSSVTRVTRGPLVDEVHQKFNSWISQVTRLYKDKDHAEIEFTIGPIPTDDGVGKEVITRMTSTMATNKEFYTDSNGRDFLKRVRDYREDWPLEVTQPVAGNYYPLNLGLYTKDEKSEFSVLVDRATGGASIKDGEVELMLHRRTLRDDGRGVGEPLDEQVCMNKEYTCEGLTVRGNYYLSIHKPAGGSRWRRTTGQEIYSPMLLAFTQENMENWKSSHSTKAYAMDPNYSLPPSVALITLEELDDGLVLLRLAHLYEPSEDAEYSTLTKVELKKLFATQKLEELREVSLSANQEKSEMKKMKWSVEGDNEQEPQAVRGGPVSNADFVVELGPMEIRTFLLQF

[8] = Inhibition of snail beta-mannosidase assessed as reduction of p-nitrophenol release using p-nitrophenyl glycoside as substrate by spectrophotometric analysis; parameters: species or system Helix pomatia
[9] = target: T2, Tissue alpha-L-fucosidase (Bos taurus) (UniProt Q2KIM0); test: Inhibition of bovine kidney alpha-L-fucosidase assessed as reduction of p-nitrophenol release using p-nitrophenyl glycoside as substrate at 1000 uM by spectrophotometric analysis relative to control
T2 sequence (whole entry): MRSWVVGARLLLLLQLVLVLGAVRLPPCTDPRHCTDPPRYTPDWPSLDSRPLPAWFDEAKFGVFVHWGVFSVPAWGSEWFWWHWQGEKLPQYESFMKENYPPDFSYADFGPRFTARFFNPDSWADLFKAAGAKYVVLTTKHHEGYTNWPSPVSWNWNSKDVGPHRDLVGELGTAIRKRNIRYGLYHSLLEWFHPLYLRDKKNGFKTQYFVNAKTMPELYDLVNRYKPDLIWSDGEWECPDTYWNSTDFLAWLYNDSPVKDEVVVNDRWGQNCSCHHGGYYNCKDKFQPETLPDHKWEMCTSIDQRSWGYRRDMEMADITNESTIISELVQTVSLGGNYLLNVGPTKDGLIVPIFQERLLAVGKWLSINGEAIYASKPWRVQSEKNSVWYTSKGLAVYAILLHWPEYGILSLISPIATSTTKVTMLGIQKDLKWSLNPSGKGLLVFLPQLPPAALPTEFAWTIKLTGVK

Sus scrofa = organism: Sus scrofa; test: Inhibition of porcine kidney alpha/alpha-trehalase assessed as reduction of p-nitrophenol release using p-nitrophenyl glycoside as substrate at 1000 uM by spectrophotometric analysis relative to control
[10] = Inhibition of Aspergillus niger amyloglucosidase assessed as reduction of p-nitrophenol release using p-nitrophenyl-glycoside as substrate by spectrophotometric analysis
Penicillium decumbens = test: Inhibition of Penicillium decumbens alpha-L-rhamnosidase assessed as reduction of p-nitrophenol release using p-nitrophenyl-glycoside as substrate at 1000 uM by spectrophotometric analysis relative to control
Beta-glucuronidase = Beta-glucuronidase (Escherichia coli (strain K12), UniProt P05804); test: Inhibition of Escherichia coli beta-glucuronidase assessed as reduction of p-nitrophenol release using p-nitrophenyl-glycoside as substrate by spectrophotometric analysis
Chain of Beta-glucuronidase (P05804 whole entry): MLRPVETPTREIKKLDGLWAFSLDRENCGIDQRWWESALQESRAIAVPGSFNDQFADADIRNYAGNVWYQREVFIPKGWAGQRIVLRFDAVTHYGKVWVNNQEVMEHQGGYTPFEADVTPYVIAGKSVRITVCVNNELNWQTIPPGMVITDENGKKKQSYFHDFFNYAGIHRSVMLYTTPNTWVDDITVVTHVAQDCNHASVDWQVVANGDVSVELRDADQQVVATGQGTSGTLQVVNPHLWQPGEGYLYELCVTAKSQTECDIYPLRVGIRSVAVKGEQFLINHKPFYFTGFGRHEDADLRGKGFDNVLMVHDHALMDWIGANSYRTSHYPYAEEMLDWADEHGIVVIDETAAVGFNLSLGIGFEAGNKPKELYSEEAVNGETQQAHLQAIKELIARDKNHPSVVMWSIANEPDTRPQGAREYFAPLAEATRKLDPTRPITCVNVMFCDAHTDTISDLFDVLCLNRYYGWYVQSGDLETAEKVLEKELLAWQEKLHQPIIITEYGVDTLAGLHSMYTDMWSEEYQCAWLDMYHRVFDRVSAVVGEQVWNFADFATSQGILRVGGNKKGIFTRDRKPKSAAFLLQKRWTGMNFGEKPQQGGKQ

Bos taurus [11] = organism: Bos taurus; test: Inhibition of bovine liver beta-glucuronidase assessed as reduction of p-nitrophenol release using p-nitrophenyl-glycoside as substrate at 1000 uM by spectrophotometric analysis relative to control
[12] = target: Alpha-glucosidase (Saccharomyces cerevisiae S288c) (UniProt P53341+P38158+P07265); test: Inhibition of yeast alpha-glucosidase assessed as reduction of p-nitrophenol release using p-nitrophenyl glycoside as substrate at 1000 uM by spectrophotometric analysis relative to control; assay type: protein assay
Rattus norvegicus = organism: Rattus norvegicus; test: Inhibition of rat intestinal maltase assessed as D-glucose release using maltose as substrate at pH 6.8 at 1000 uM by colorimetric method relative to control
[13] = Inhibition of human lysosomal beta-glucosidase assessed as reduction of p-nitrophenol release using p-nitrophenyl glycoside as substrate by spectrophotometric analysis
Alpha-galactosidase = Alpha-galactosidase (Coffea arabica, UniProt Q42656); test: Inhibition of coffee beans alpha-galactosidase assessed as reduction of p-nitrophenol release using p-nitrophenyl glycoside as substrate by spectrophotometric analysis
Chain of Alpha-galactosidase (Q42656 whole entry): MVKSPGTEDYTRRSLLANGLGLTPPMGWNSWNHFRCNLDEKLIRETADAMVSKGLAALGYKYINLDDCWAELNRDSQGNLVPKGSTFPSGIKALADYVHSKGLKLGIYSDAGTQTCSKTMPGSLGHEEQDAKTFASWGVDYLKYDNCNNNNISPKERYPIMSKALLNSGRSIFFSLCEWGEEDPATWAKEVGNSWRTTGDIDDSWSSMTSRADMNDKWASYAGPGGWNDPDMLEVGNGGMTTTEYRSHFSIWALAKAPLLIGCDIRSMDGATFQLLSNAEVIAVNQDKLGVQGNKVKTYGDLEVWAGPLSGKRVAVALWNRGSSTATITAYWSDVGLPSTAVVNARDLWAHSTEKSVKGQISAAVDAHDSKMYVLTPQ

Alpha-mannosidase = target: T3, Alpha-mannosidase (Canavalia ensiformis, UniProt C0HJB3); test: Inhibition of jack bean alpha-mannosidase assessed as reduction of p-nitrophenol release using p-nitrophenyl glycoside as substrate by spectrophotometric analysis
T3 sequence (C0HJB3 whole entry): T1 sequence (whole entry)

Helix pomatia = test: Inhibition of snail beta-mannosidase assessed as reduction of p-nitrophenol release using p-nitrophenyl glycoside as substrate at 1000 uM by spectrophotometric analysis relative to control
Aspergillus niger = test: Inhibition of Aspergillus niger amyloglucosidase assessed as reduction of p-nitrophenol release using p-nitrophenyl-glycoside as substrate at 1000 uM by spectrophotometric analysis relative to control
[14] = Inhibition of Penicillium decumbens alpha-L-rhamnosidase assessed as reduction of p-nitrophenol release using p-nitrophenyl-glycoside as substrate by spectrophotometric analysis
Prunus dulcis = test: Inhibition of almond beta-glucosidase assessed as reduction of p-nitrophenol release using p-nitrophenyl glycoside as substrate at 1000 uM by spectrophotometric analysis relative to control
Bos taurus [15] = organism: Bos taurus; test: Inhibition of bovine liver beta-glucosidase assessed as reduction of p-nitrophenol release using p-nitrophenyl glycoside as substrate at 1000 uM by spectrophotometric analysis relative to control
[16] = target: Beta-glucuronidase (Escherichia coli (strain K12)) (UniProt P05804); test: Inhibition of Escherichia coli beta-glucuronidase assessed as reduction of p-nitrophenol release using p-nitrophenyl-glycoside as substrate at 1000 uM by spectrophotometric analysis relative to control
Chain of Beta-glucuronidase (Escherichia coli (strain K12)) (P05804 whole entry, looked up): as the sequence (P05804 whole entry) above

Oryza sativa = test: Inhibition of rice alpha-glucosidase assessed as reduction of p-nitrophenol release using p-nitrophenyl glycoside as substrate at 1000 uM by spectrophotometric analysis relative to control
Bos taurus [17] = organism: Bos taurus; test: Inhibition of bovine liver beta-galactosidase assessed as reduction of p-nitrophenol release using p-nitrophenyl glycoside as substrate at 1000 uM by spectrophotometric analysis relative to control

Structure (SMILES)	IC50 (Alpha-glucosidase)	pIC50 [1]	pIC50 [2]	pIC50 [3]	pIC50 [4]	inhibition [5]	pIC50 [6]	inhibition [7]	pIC50 [8]	inhibition [9]	inhibition (Sus scrofa)	pIC50 [10]	inhibition (Penicillium decumbens)	pIC50 (Beta-glucuronidase)	inhibition (Bos taurus [11])	inhibition [12]	inhibition (Rattus norvegicus)	pIC50 [13]	inhibition (Helix pomatia)	inhibition (Aspergillus niger)	other results
O=C1CCCC=C1CCCCCCC[C@H]1N[C@H](CO)[C@@H](O)[C@@H]1O	21.6 µM	3.92	4.18	5.01	6.92	19.6%	7.52	15.1%	3.55	16.8%	0.8%	4.52	35.1%	5.48	46.1%						
OC[C@H]1N[C@H](CCCCCCCc2ccccc2)[C@@H](O)[C@H]1O		4.07		3.33	4.19		4.66			32.7%	3.5%			4.12	12.7%	21.1%	43.3%	5.28	3.6%	6%	pIC50 (Alpha-galactosidase): 4.39; pIC50 (Alpha-mannosidase): 3.56; pIC50 [14]: 3.50
CC(C)(C)c1ccc(CCCCCC[C@@H](O)[C@@H]2N[C@@H](CO)[C@H](O)[C@H]2O)cc1		4.68	4.66			1%	4.12	0%		0%	0%		4.6%		18.4%	11.4%		5.20	0.8%	8.7%	inhibition (Prunus dulcis): 21.8%; inhibition (Bos taurus [15]): 40%; inhibition [16]: 23.5%
Cl.OC[C@H]1N[C@H]([C@H](O)CCCCCCc2ccc(F)c(F)c2)[C@@H](O)[C@@H]1O	87 µM			6.28	8.15	17.2%	8.40	16.6%	4.80		1.4%	4.96	27%	4.68	4.3%		42.5%	5.57			inhibition (Oryza sativa): 43.4%
OC[C@H]1N[C@H](CCCCCCCc2ccccc2)[C@@H](O)[C@@H]1O	33 µM	5.20	5.80	5.00	6.92	5%	7.68	8.4%	3.43	7.9%	10.7%	4.44	43.9%	4.01	9.8%						
OC[C@@H]1N[C@@H]([C@H](O)CCCCCCc2ccc(Cl)cc2)[C@H](O)[C@H]1O			4.55			1.3%		0.8%		0%	0%		0%		0%	11.4%		3.96	0.4%	8.7%	inhibition (Oryza sativa): 34%; inhibition (Prunus dulcis): 9.6%; inhibition (Bos taurus [15]): 21%; inhibition (Bos taurus [17]): 37.3%; inhibition [16]: 4.8%
Cl.OC[C@H]1N[C@H]([C@H](O)CCCCCCc2ccc(F)cc2)[C@@H](O)[C@@H]1O	83 µM			6.82	8.05	8.6%	8.30	13.9%	4.70		0%	4.52	4.1%	4.44	7.1%		24.2%	5.48			inhibition (Oryza sativa): 10.2%
